“Also recorded” adds a separate entry of the source.
Assays:
Format in all cases: cell-based, human
[1] = tested on: KF-28 ovarian cancer cells; experiment: MTT cytotoxicity assay, KF-28; details: Homo sapiens; MTT, 72 h, n = 3; read-out: IC50 KF-28 (Ovarian)
Method: The synthesized derivatives were screened for their cytotoxic activities against five cancer cell lines (two breast cancer cell lines: MCF-7 and MDA-MB-231, two ovarian cancer cell lines: A2780 and KF-28, and one cervical cancer cell line: Hela). This study was performed using serial concentrations of 25, 50, 100, 150, and 200 µM of each compound using the MTT assay. Percentages of cell viability of the tested compounds with serial concentration against the tested panel of cell lines are depicted in Figure 1, in which there is a decrease in the cell viability with increasing concentrations in a dose–response pattern. […] Therefore, compounds 5a, 5b, and 5f were thought worthwhile to further investigate their effects as either cytotoxic or antiproliferative effects and whether any of them is an inducer of apoptotic cell death in the representative cancer cell lines KF-28 and A2780.
The human ovarian serous carcinoma cell line KF-28 was kindly provided by Prof. Yoshihiro Kikuchi (Department of Obstetrics and Gynecology, National Defense Medical College, Saitama, Japan), and A2780 cell line was purchased from the ECACC (ECACC 93112519). The cells were maintained in RPMI-1640 (Sigma-Aldrich, United States). The cervical cancer cell line, Hela cells, breast cancer cell line, MCF-7, and MDA-MB-231 were purchased from the ATCC and cultured in DMEM. Both types of media were supplemented with 2 mM L-glutamine (Lonza, Belgium), 10% FBS (Sigma, St. Louis, MO, United States), and 1% penicillin/streptomycin (Lonza, Belgium). All cells were incubated at 37°C in 5% CO2 atmosphere (NuAire). All cancer cell lines were cultured according to the routine tissue culture work as discussed by the Freshney group ([Freshney, 2010]). The cells were plated at a density of 5,000 cells in triplicates in a 96-well plate. On the next day, the cells were treated with the indicated compound(s) at the indicated concentrations in a final volume of 100 μL media. Cell viability was assessed after 72 h using MTT solution (Promega) ([Mosmann, 1983]). 20 μL of the reagent was added to each well, the plate was incubated for 3 h, […] was subsequently measured (570 nm) using a plate reader, and then the IC50 values were calculated using Excel ([Tantawy et al., 2020]).

KF-28 cells = experiment: DNA content and cell cycle analysis (PI, flow cytometry); details: 200 µM, 48 h; for Cell cycle phase G1 population: DMSO control 72%
Method: Studying the cell cycle phases by measuring DNA content is a crucial test that helps in evaluating the impact of a given drug(s) on dividing cells and may reflect the mechanism through which this drug(s) affects those cells. […] Compounds 5a, 5b, 5c, 5f, 5g, and 9 were added to similar numbers of cells at 200 µM for 48 h, and then, the different cell cycle phases were assessed by flow cytometric analysis.
The cells were seeded into six-well culture plates (3–5 × 10^5 cells/well) and incubated overnight at 37°C, under 5% CO2. The cells were then treated with indicated compounds for 48 h. Next, media supernatants and the cells were collected and washed with ice-cold PBS. Next, the cells were stained with PI (10 mg/ml) for 30 min and analyzed for DNA contents using flow cytometry analysis using an FL2 (λex/em 535/617 nm) signal detector (ACEA Novocyte™ flow cytometer, ACEA Biosciences, Inc., San Diego, CA, United States). For each sample, 12,000 events are acquired. Cell cycle distribution is calculated using a CytoFLex machine and analyzed by CytExpert software. Flow cytometric methodologies (annexin V/PI staining with cell cycle analyses) are carried out as previously described ([Nafie et al., 2020a]; [Nafie et al., 2020b]; [Gad et al., 2020]).

C-myc in KF-28 cells = experiment: Western blot of C-myc expression; details: two days, vs DMSO
Excerpt: Pim-1 has been classified as a weak oncogene. However, a very strong synergism with regard to tumorigenicity occurs between Pim-1 and C-myc. This synergism is observed with bitransgenic mice overexpressing C-myc and Pim-1 in lymphoid tissue ([Möröy et al., 1991]). To further validate the simulation and docking data which introduced Pim-1 kinase as a potential target molecule for some of the tested compounds, we decided to check the effect of treatment with the selected compounds on the C-myc protein expression as a downstream target molecule known to be phosphorylated and stabilized by Pim-1 as a kinase ([Zhang et al., 2008]). […] Taking into consideration the fact that Pim-1 phosphorylates C-myc and controls its stability ([Zhang et al., 2008]) may conclude that the reduction of C-myc expression under the indicated compounds is due to the inhibition of Pim-1 activity (Figure 3). Therefore, the speculated inhibition of Pim-1 is supported by the above-mentioned qPCR data (Figure 3) and further supported by C-myc downregulation. Our results agree with the reported one which states that some thiazole derivatives are potent inhibitors against protein kinases including Pim-1 kinase ([Mohareb et al., 2019]).
Cell lysates were prepared by lysing cells in RIPA buffer (10 mM Tris (pH 7.4), 150 mM NaCl, 1% Triton X-100, 1% Na deoxycholate), supplemented with protease inhibitor cocktail (Sigma). Protein concentration of whole cell lysates was determined by the […] using the BSA kit (Pierce), and then equal protein amounts were heated to 95 °C for 5 min with sodium dodecyl sulfate (SDS) sample buffer (25 ml glycerol, 31.2 ml Tris buffer, 7.5 ml SDS, a dash of bromophenol blue/100 ml) and run on 15% SDS polyacrylamide gel electrophoresis (SDS-PAGE). Protein samples were then blotted onto PVDF membranes (Immobilon P, Watford, United Kingdom). The membranes were incubated in blocking solution (5% non-fat milk in PBS) for 1 h and then in primary antibody (anti-human C-myc pAb (Abcam; at dilution of 2:1,000) or GAPDH mAb (Santa Cruz; at dilution of 20:1,000)) overnight. After 3 × 10 min washes in TBS (0.1% Tween-20 in PBS), the membrane was incubated for 1 h at room temperature with horseradish-peroxidase–linked (HRP) secondary anti-rabbit or anti-mouse Ab (1:1,000 dilution in PBS). Signals on the membrane were developed using ECL reagent (Amersham, CA, United States) and then were imaged with the Chemidoc system (Bio-Rad, United States).

With Cc1[nH]c(=NN=C2CCC(=NN=c3[nH]c(C)c(N=Nc4ccccc4)s3)CC2)sc1N=Nc1ccccc1 [5a, 1,4-Bis((5-phenylazo-4-methylthiazol-2-ylidene)hydrazono)cyclohexane] the IC50 [1] was less than 25 µM, the “Cell cycle phase S population” value (KF-28 cells) was 11.4% and the “Cell cycle phase G1 population” value (KF-28 cells) was 75.9%. The “C-myc protein expression (Western blot)” value (C-myc in KF-28 cells) was “observable downregulation”.

Cc1[nH]c(=NN=C2CCC(=NN=c3[nH]c(C)c(N=Nc4ccccc4Cl)s3)CC2)sc1N=Nc1ccccc1Cl [5f, 1,4-Bis((5-(2-chlorophenylazo)-4-methylthiazol-2-ylidene)hydrazono)cyclohexane] was tested, and the IC50 [1] was less than 25 µM, the “Cell cycle phase G1 population” value (KF-28 cells) was 76.9% and the “C-myc protein expression (Western blot)” value (C-myc in KF-28 cells) was “observable downregulation; also recorded: Appreciated downregulation”.

In the case of Cc1ccc(N=Nc2sc(=NN=C3CCC(=NN=c4[nH]c(C)c(N=Nc5ccc(C)cc5)s4)CC3)[nH]c2C)cc1 [5b, 1,4-Bis((5-(4-tolylazo)-4-methylthiazol-2-ylidene)hydrazono)cyclohexane], the IC50 [1] is reported as less than 25 µM, the “Cell cycle phase S population” value (KF-28 cells) is reported as 4.5% and the “Cell cycle phase G1 population” value (KF-28 cells) is reported as 85.6%. The “C-myc protein expression (Western blot)” value (C-myc in KF-28 cells) was “observable downregulation; also recorded: Appreciated downregulation”.

From article PMC8397418, “Novel Bis-Thiazole Derivatives: Synthesis and Potential Cytotoxic Activity Through Apoptosis With Molecular Docking Approaches” (Frontiers in Chemistry, 2021)
